Among the test systems are MDA-MB-435; NCI-H226 lung; HOP-92 NSCLC; SNB-75 CNS; SF-295 CNS; UO-31 renal; OVCAR-3 ovarian; CAKI-1 renal; SW-620 colon; HS 578T breast.
What all share (assay): growth of human tumour cells (NCI), 48 h

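48-hour exposure; five concentrations; linearly interpolated endpoints. At the GI50, growth is halved. At the TGI there is no net growth.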

In the case of `CC12C=CC(C)(O1)C1C2c2ccccc2S1(=O)=O` (centres undefined), the GI50 is 52.1 µM in the experiment on MDA-MB-435; 42 µM with NCI-H226 lung; 58.6 µM in the experiment with HOP-92 NSCLC; 23.2 µM in the experiment on SNB-75 CNS; greater than 100 µM with SF-295 CNS; greater than 100 µM in the experiment on UO-31 renal. Moreover, the GI50 in the experiment with OVCAR-3 ovarian is 52.7 µM; in the experiment on CAKI-1 renal it was 82 µM; with SW-620 colon, 39.9 µM; in the experiment with HS 578T breast it was 46.2 µM. Also, the TGI in the experiment with MDA-MB-435, with NCI-H226 lung, in the experiment with HOP-92 NSCLC, with SNB-75 CNS, in the experiment with SF-295 CNS and in the experiment with UO-31 renal was greater than 100 µM in each case. The TGI with OVCAR-3 ovarian, in the experiment on CAKI-1 renal, with SW-620 colon and in the experiment on HS 578T breast was greater than 100 µM each time.

Consider `COc1cc2c(cc1OCCCCCCNC(=O)c1cc3ccccc3[nH]1)N=CC1CCCN1C2=O` (centres undefined), for which the GI50 was 39.3 µM with MDA-MB-435; 58 µM with NCI-H226 lung; 25.3 µM in the experiment with HOP-92 NSCLC; 64.2 µM with SNB-75 CNS; 31.1 µM in the experiment on SF-295 CNS; 33.9 µM in the experiment on UO-31 renal. For the same molecule, the results for the GI50 in the experiment with OVCAR-3 ovarian, in the experiment with SW-620 colon and with HS 578T breast were 6.17 µM, 38.6 µM and 30.6 µM, respectively. Also, the TGI with MDA-MB-435, in the experiment on NCI-H226 lung, in the experiment with HOP-92 NSCLC, in the experiment on SNB-75 CNS, with SF-295 CNS and in the experiment with UO-31 renal was greater than 100 µM throughout. Moreover, the TGI in the experiment with OVCAR-3 ovarian, in the experiment with SW-620 colon and with HS 578T breast was greater than 100 µM throughout.

`CC(C)[C@@H](C(=O)O[C@@H]1/C=C/C(=O)O[C@@H](C)CCC/C=C/[C@@H]2C[C@H](O)C[C@H]21)[N+](C)(C)C`: the GI50 with MDA-MB-435, in the experiment on NCI-H226 lung, with SNB-75 CNS, in the experiment on SF-295 CNS, in the experiment with UO-31 renal and in the experiment on OVCAR-3 ovarian was greater than 100 µM throughout. In addition, the GI50 with CAKI-1 renal, in the experiment with SW-620 colon and in the experiment with HS 578T breast was greater than 100 µM throughout. Besides, the TGI in the experiment with MDA-MB-435, in the experiment on NCI-H226 lung, in the experiment on SNB-75 CNS, in the experiment on SF-295 CNS, with UO-31 renal and with OVCAR-3 ovarian was greater than 100 µM in each case. In addition, the TGI with CAKI-1 renal, in the experiment with SW-620 colon and in the experiment with HS 578T breast was greater than 100 µM throughout.

Consider `NC(=O)Nc1ccc2ncnc(Nc3ccc(Cl)cc3)c2c1`, for which the GI50 was 17.8 µM with MDA-MB-435; 22.9 µM with NCI-H226 lung; 8 µM with SNB-75 CNS; 19.2 µM in the experiment on SF-295 CNS; 6.96 µM with UO-31 renal; 10.4 µM with OVCAR-3 ovarian. Besides, the GI50 is 1.6 µM in the experiment with CAKI-1 renal, 42.8 µM with SW-620 colon and 17 µM in the experiment with HS 578T breast. For the same molecule, the TGI is 44.6 µM in the experiment with MDA-MB-435; greater than 100 µM in the experiment with NCI-H226 lung; 61 µM in the experiment on SNB-75 CNS; greater than 67.4 µM in the experiment with SF-295 CNS; greater than 65.6 µM in the experiment on UO-31 renal; greater than 83.4 µM with OVCAR-3 ovarian. Further, the TGI with CAKI-1 renal was 42.2 µM; with SW-620 colon, greater than 100 µM; with HS 578T breast it was 66.4 µM.

With `Cc1cc(N(CCCNc2ccnc3cc(Cl)ccc23)Cc2cccs2)nc(Cl)n1`, the GI50 is 4 µM in the experiment with MDA-MB-435; 10.2 µM with NCI-H226 lung; 2.63 µM in the experiment on HOP-92 NSCLC; 2.82 µM with SNB-75 CNS; 0.986 µM in the experiment on UO-31 renal; 6.43 µM in the experiment with OVCAR-3 ovarian. Besides, the figures for the GI50 with SW-620 colon and in the experiment on HS 578T breast were 3.45 µM and 9.29 µM, respectively. Besides, the TGI with MDA-MB-435 is 15.8 µM; in the experiment with NCI-H226 lung, 31.1 µM; in the experiment on HOP-92 NSCLC, 20 µM; in the experiment on SNB-75 CNS it was 18 µM; in the experiment with UO-31 renal it was 7.73 µM; with OVCAR-3 ovarian it was 21.4 µM. The TGI in the experiment with SW-620 colon is 18.9 µM; in the experiment on HS 578T breast, 41.5 µM.

As to `O=C(CCCn1ccnc1[N+](=O)[O-])NCCn1cnc([N+](=O)[O-])c1`, the TGI in the experiment on MDA-MB-435, with NCI-H226 lung, with SNB-75 CNS, with SF-295 CNS, in the experiment with UO-31 renal and with OVCAR-3 ovarian was greater than 100 µM each time. In addition, the TGI with CAKI-1 renal, in the experiment on SW-620 colon and in the experiment with HS 578T breast was greater than 100 µM throughout.

For `Cn1cc(-c2csc(-c3cn(CCN4CCOCC4)c4ccc(F)cc34)n2)c2cccnc21`, the GI50 in the experiment on MDA-MB-435 is 2.77 µM; in the experiment on NCI-H226 lung, 1.86 µM; with HOP-92 NSCLC, 2.39 µM; in the experiment on SNB-75 CNS, 2.57 µM; in the experiment on SF-295 CNS, 2.35 µM; in the experiment on UO-31 renal, 2.2 µM. In addition, the GI50 in the experiment on OVCAR-3 ovarian was 2.71 µM; in the experiment on SW-620 colon it was 3.62 µM; in the experiment with HS 578T breast it was 3.75 µM. Moreover, the TGI in the experiment on MDA-MB-435 was 10.5 µM; in the experiment with NCI-H226 lung, 5.51 µM; in the experiment on HOP-92 NSCLC, 9.12 µM; in the experiment with SNB-75 CNS, 50.5 µM; in the experiment with SF-295 CNS, 7.15 µM; in the experiment on UO-31 renal it was 7.88 µM. In addition, the TGI was 9.27 µM in the experiment with OVCAR-3 ovarian, 57.5 µM in the experiment on SW-620 colon and greater than 100 µM in the experiment with HS 578T breast.

On to `COc1ccc(S(=O)(=O)O)cc1NS(=O)(=O)c1ccc(C)cc1`, for which the TGI in the experiment on MDA-MB-435, in the experiment on NCI-H226 lung, in the experiment with SNB-75 CNS, in the experiment on SF-295 CNS, with UO-31 renal and in the experiment on OVCAR-3 ovarian was greater than 100 µM each time. Further, the TGI with CAKI-1 renal, in the experiment with SW-620 colon and with HS 578T breast was greater than 100 µM each time.

In the case of `CC(=O)OC1CCC2(C)C(CCC3C2CCC2(C)C(C4=CC(=O)OC4)CCC32)C1` (centres undefined), the GI50 in the experiment on MDA-MB-435 is 4.2 µM; in the experiment with NCI-H226 lung it was 22.1 µM; with HOP-92 NSCLC it was 2.93 µM; with SNB-75 CNS, 11.6 µM; in the experiment on UO-31 renal, 16.1 µM; in the experiment with OVCAR-3 ovarian it was 20.6 µM. For the same molecule, the GI50 was 11.2 µM in the experiment with CAKI-1 renal, 32 µM with SW-620 colon and 4.68 µM in the experiment on HS 578T breast. Moreover, the TGI is 33.5 µM in the experiment on MDA-MB-435; 65.1 µM in the experiment on NCI-H226 lung; 22.6 µM with HOP-92 NSCLC; 30.2 µM with SNB-75 CNS; 49.9 µM in the experiment with UO-31 renal; 86 µM in the experiment on OVCAR-3 ovarian. The TGI is 33.1 µM in the experiment with CAKI-1 renal, greater than 100 µM with SW-620 colon and 32.1 µM in the experiment with HS 578T breast.

Source of the values: PubChem BioAssay (NCI).
